This data set can be described thus: Solubility of M4N in water-insoluble lipids (visual inspection). The class given is physicochemical. The procedure: A 10 mL solution of M4N at a concentration of about 50 mg/mL in sesame oil was made as follows. About 10 mL of sesame oil were added to a glass beaker containing a stir bar. The beaker was placed on a magnetic plate and the stir bar was set to stir at medium speed. About 500 mg of M4N were slowly added to the sesame oil in the center of the beaker with the aid of a spatula to prevent M4N from sticking to the beaker wall. The M4N/sesame oil mixture was stirred for about 2 hr or until all M4N had dissolved or was uniformly suspended without any clump being present. The M4N/sesame oil mixture was heated at about 60° C. for about 30 min. (or longer if a larger volume of solution was desired, for example, 1 hr at 60° C. for 500 mL of the M4N/sesame oil mixture), or longer as need to ensure complete dissolution of M4N. […] If crystals formed, the M4N/sesame oil solution could be heated again at 60° C. for about 1 hr, with stirring, on a hot magnetic plate until all M4N was dissolved back in solution. The final M4N/sesame oil solution was stored at room temperature and was kept protected from light.
A 10 mL solution of M4N at a concentration of about 60 mg/mL in 85% sesame oil and 15% Tween® 20 was made as follows. About 8.5 mL of sesame oil were added to a glass beaker containing a stir bar. The beaker was placed on a magnetic plate and the stir bar was set to stir at medium speed. About 1.5 mL of Tween® 20 was slowly added to the center of the beaker. About 600 mg of M4N were slowly added to the sesame oil/Tween® 20 mixture in the center of the beaker with the aid of a spatula to prevent M4N from sticking to the beaker wall. The M4N/sesame oil/Tween® 20 mixture was stirred for about 2 hr or until all M4N had dissolved or was uniformly suspended without any clumps being present. The M4N/sesame oil/Tween® 20 mixture was heated at about 60° C. for about 30 min. (or longer if a larger volume of solution was desired, for example, 1 hr at 60° C. for 500 mL of the M4N/sesame oil/Tween® 20 mixture), or longer as need to ensure complete dissolution of M4N. […]

As to `COc1ccc(C[C@@H](C)[C@@H](C)Cc2ccc(OC)c(OC)c2)cc1OC` [Formulation M4N, meso-1,4-bis(3,4-dimethoxyphenyl)-2,3-dimethylbutane], the “stable at room temperature” value is, setting by setting: (89% sesame oil and 11% Tween® 20, M4N 29 mg/mL, dissolved at 60° C.) “more than 7 days”; (sesame oil, M4N 50 mg/mL) “less than 1 day”. The “Stability Time at Room Temperature” value (Sesame Oil and Tween ® 20: 10% Oil emulsion in 90% saline, M4N 2.9 mg/mL) is listed as less than 3 days.

Values taken from US20080096967A1, “Formulations for Injection of Catecholic Butanes, Including Ndga Compounds, Into Animals” (priority 2005, published 2008).
